Assay results published in the NIST ThermoML archive (doi:10.1021/acs.jced.5b00679).
± gives the expanded uncertainty stated by the source.

How the values were obtained:
[1] = Crystal; DTA
[2] = Molar enthalpy of transition or fusion; settings: Crystal; DSC

SMILES | Normal melting temperature [1] [°C] | Molar enthalpy of transition or fusion [2] [kcal/mol]
CCn1c2c(c3c1CCCC3)CCCC2 [9-ethyl-2,3,4,5,6,7,8,9-octahydro-1H-carbazole] | 43 ± 2 | 4.92 ± 0.139
c1ccc2c3c([nH]c2c1)CCCC3 [2,3,4,9-tetrahydro-1H-carbazole] | 118.2 ± 2 | 4.27 ± 0.1
CCn1c2c(c3ccccc31)CCCC2 [9-ethyl-2,3,4,9-tetrahydrocarbazole] | 9.2 ± 2 | 2.97 ± 0.0765
CC(C)n1c2ccccc2c2ccccc21 [9-(1-methylethyl)carbazole] | 120.8 ± 2 | 4.36 ± 0.184

Next, values leading:

Normal melting temperature [1] [°C] | Molar enthalpy of transition or fusion [2] [kcal/mol] | SMILES
69.2 ± 2 | 3.96 ± 0.12 | CCn1c2ccccc2c2ccccc21 [9-ethylcarbazole]
57.5 ± 2 | 5.45 ± 0.136 | CCCCn1c2ccccc2c2ccccc21 [N-butyl-9H-carbazole]
47.2 ± 2 | 4.68 ± 0.117 | CCCn1c2ccccc2c2ccccc21 [N-propyl-9H-carbazole]
88 ± 2 | 3.93 ± 0.136 | Cn1c2ccccc2c2ccccc21 [9-methyl-9H-carbazole]
244.0 ± 2 | 6.62 ± 0.201 | c1ccc2c(c1)[nH]c1ccccc12 [9H-carbazole]
